Results from BigSolDB 2.1.

CC[C@H]1OC(=O)[C@H](C)[C@@H](O[C@H]2C[C@@](C)(OC)[C@@H](O)[C@H](C)O2)[C@H](C)[C@@H](O[C@@H]2O[C@H](C)C[C@H](N(C)C)[C@H]2O)[C@](C)(O)C[C@@H](C)C(=O)[C@H](C)[C@@H](O)[C@]1(C)O.O.O
solubility (mole fraction)
Conditions | 293.2 K | 298 K | 303.15 K | 308 K | 313.1 K | 318 K | 323 K
in acetone | 0.00914 | 0.0131 | 0.0217 | 0.0293 | 0.0433 | 0.0542 | 0.0804
in chloroform | 0.00391 | 0.0054 | 0.00875 | 0.0134 | 0.0216 | 0.0313 | 0.0473
in ethanol | 0.0148 | 0.0192 | 0.0254 | 0.0338 | 0.046 | 0.062 | 0.081
in isopropanol | 0.003 | 0.00401 | 0.00556 | 0.00754 | 0.00995 | 0.0143 | 0.0194
in methanol | 0.0116 | 0.0143 | 0.0179 | 0.0215 | 0.0253 | 0.0305 | 0.0373
in water | 5.4e-05 | 4.7e-05 | 4.2e-05 | 4e-05 | 3.8e-05 | 3.5e-05 | 3.4e-05
